Measured values reported in ChEMBL document CHEMBL5543144, “Discovery of a Novel Potent Tetrazole Antifungal Candidate with High Selectivity and Broad Spectrum” (J Med Chem, 2024).
Converted amounts (≈) assume the structure as drawn. The source made the active and inactive calls. The rule behind the calls is not given here.

Columns and labels:
Cryptococcus neoformans [1] = assay: Antifungal activity against Cryptococcus neoformans H99 assessed as inhibition of fungal growth incubated for 72 hrs by CLSI protocol based microbroth dilution method; assay type: functional
Cell membrane = assay: Disruption of cell membrane integrity in Candida albicans SC5314 assessed as increase in increase in red fluorescence at 0.5 ug/ml incubated for 8 hrs by PI staining based fluorescence microscopic analysis; conditions: dose 0.5 µg/ml
[Candida] auris [2] = Antifungal activity against fluconazole resistant Candida auris 887 assessed as inhibition of fungal growth incubated for 48 hrs by CLSI protocol based microbroth dilution method; assay type: functional; conditions: Candidozyma auris
Candida parapsilosis = assay: Antifungal activity against Candida parapsilosis 22019 assessed as inhibition of fungal growth incubated for 24 hrs by CLSI protocol based microbroth dilution method; assay type: functional; conditions: Lodderomyces parapsilosis
Aspergillus fumigatus = assay: Antifungal activity against Aspergillus fumigatus 7544 assessed as inhibition of fungal growth incubated for 48 hrs by CLSI protocol based microbroth dilution method; assay type: functional
[Candida] auris [3] = Antifungal activity against fluconazole resistant Candida auris BS12372 assessed as inhibition of fungal growth incubated for 48 hrs by CLSI protocol based microbroth dilution method; assay type: functional; conditions: Candidozyma auris
[Candida] auris [4] = Antifungal activity against fluconazole resistant Candida auris D12 assessed as inhibition of fungal growth incubated for 48 hrs by CLSI protocol based microbroth dilution method; assay type: functional; conditions: Candidozyma auris
Pichia kudriavzevii = assay: Antifungal activity against Candida krusei 4946 assessed as inhibition of fungal growth incubated for 24 hrs by CLSI protocol based microbroth dilution method; assay type: functional
Candida albicans [5] = assay: Antifungal activity against Candida albicans SC5314 infected in ICR mouse model assessed as fungal burden in kidney at 1 mg/kg/day, po pre-infected with fungi for 2 hrs followed by compound administration and measured after 48 hrs (reference value: 3.89 Log10CFU/g); assay type: functional
[Candida] auris [6] = Antifungal activity against fluconazole resistant Candida auris 791 assessed as inhibition of fungal growth incubated for 48 hrs by CLSI protocol based microbroth dilution method; assay type: functional; conditions: Candidozyma auris
[Candida] auris [7] = Antifungal activity against fluconazole resistant Candida auris 888 assessed as inhibition of fungal growth incubated for 48 hrs by CLSI protocol based microbroth dilution method; assay type: functional; conditions: Candidozyma auris
Nakaseomyces glabratus = assay: Antifungal activity against Candida glabrata 537 assessed as inhibition of fungal growth incubated for 48 hrs by CLSI protocol based microbroth dilution method; assay type: functional
Candida tropicalis = assay: Antifungal activity against Candida tropicalis 2718 assessed as inhibition of fungal growth incubated for 24 hrs by CLSI protocol based microbroth dilution method; assay type: functional
Candida albicans [8] = assay: Antifungal activity against Candida albicans SC5314 assessed as inhibition of fungal growth incubated for 24 hrs by CLSI protocol based microbroth dilution method; assay type: functional
Erythrocyte = assay: Hemolytic activity in rabbit RBC assessed as hemolysis at 64 ug/ml incubated for 1 hrs by absorbance based assay; assay type: toxicity, cell-based, Oryctolagus cuniculus; conditions: dose 64 µg/ml
[Candida] auris [9] = Antifungal activity against fluconazole resistant Candida auris 789 assessed as inhibition of fungal growth incubated for 48 hrs by CLSI protocol based microbroth dilution method; assay type: functional; conditions: Candidozyma auris
[10] = target: Lanosterol 14-alpha demethylase (Candida albicans (strain SC5314 / ATCC MYA-2876) (Yeast), UniProt P10613); assay: Inhibition of CYP51 in Candida albicans SC5314 assessed as ergosterol level at 0.5 ug/ml incubated for 8 hrs by GC-MS analysis (reference value: 79.31%); parameters: scale not given: the % may be the effect or the level left; conditions: at 0.5 µg/mL
Chain of Lanosterol 14-alpha demethylase (P10613 whole entry): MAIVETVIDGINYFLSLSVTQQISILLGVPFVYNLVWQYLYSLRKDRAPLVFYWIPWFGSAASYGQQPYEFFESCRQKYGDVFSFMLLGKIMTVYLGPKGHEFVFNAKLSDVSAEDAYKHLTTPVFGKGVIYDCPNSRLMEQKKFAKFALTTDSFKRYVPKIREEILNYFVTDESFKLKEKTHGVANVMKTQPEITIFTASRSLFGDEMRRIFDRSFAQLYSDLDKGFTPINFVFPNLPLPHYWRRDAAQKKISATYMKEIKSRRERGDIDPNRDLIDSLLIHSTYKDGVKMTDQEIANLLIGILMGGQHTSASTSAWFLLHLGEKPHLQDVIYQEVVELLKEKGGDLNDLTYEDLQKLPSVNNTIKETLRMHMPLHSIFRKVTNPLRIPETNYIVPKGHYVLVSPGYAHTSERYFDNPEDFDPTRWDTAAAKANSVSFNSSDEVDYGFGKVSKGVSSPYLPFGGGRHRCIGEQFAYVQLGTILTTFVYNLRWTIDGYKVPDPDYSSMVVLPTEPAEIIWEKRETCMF

Cryptococcus neoformans [11] = assay: Antifungal activity against Cryptococcus neoformans H99 assessed as inhibition of fungal growth at 0.125 ug/ml incubated for 48 hrs by plate reader analysis; assay type: functional, organism-based; conditions: dose 0.125 µg/ml
Candida albicans [12] = assay: Antifungal activity against Candida albicans SC5314 assessed as inhibition of fungal growth at 0.0156 ug/ml incubated for 24 hrs by plate reader analysis; assay type: functional, organism-based; conditions: dose 0.0156 µg/ml

| SMILES | MIC50 (Cryptococcus neoformans [1]) [µg/mL] | Activity (Cell membrane) | MIC50 ([Candida] auris [2]) [µg/mL] | MIC50 (Candida parapsilosis) [µg/mL] | MIC50 (Aspergillus fumigatus) [µg/mL] | MIC50 ([Candida] auris [3]) [µg/mL] | MIC50 ([Candida] auris [4]) [µg/mL] | MIC50 (Pichia kudriavzevii) [µg/mL] | Activity (Candida albicans [5]) [log10CFU/g] | MIC50 ([Candida] auris [6]) [µg/mL] | MIC50 ([Candida] auris [7]) [µg/mL] | MIC50 (Nakaseomyces glabratus) [µg/mL] | MIC50 (Candida tropicalis) [µg/mL] | MIC50 (Candida albicans [8]) [µg/mL] | Activity (Erythrocyte) | MIC50 ([Candida] auris [9]) [µg/mL] | Activity [10] [%] | Activity (Cryptococcus neoformans [11]) | Activity (Candida albicans [12]) |
| --- | --- | --- | --- | --- | --- | --- | --- | --- | --- | --- | --- | --- | --- | --- | --- | --- | --- | --- | --- |
| OC(Cn1cncn1)(Cn1cncn1)c1ccc(F)cc1F [FLUCONAZOLE] | 8 (≈ 26.1 µM) | Active | > 64 | 1 (≈ 3.27 µM) | > 64 | > 64 | > 64 | 8 (≈ 26.1 µM) | 2.41 | > 64 | > 64 | 0.5 (≈ 1.63 µM) | < 0.125 | 0.125 (≈ 0.408 µM) | Non-Toxic | > 64 | 10.61 |  |  |
| C[C@@H](n1ncc2cc(Cl)ccc2c1=O)[C@](O)(Cn1cncn1)c1ccc(F)cc1F | < 0.008 |  | 1 (≈ 2.32 µM) | < 0.008 | 0.25 (≈ 0.579 µM) | 0.5 (≈ 1.16 µM) | 0.5 (≈ 1.16 µM) | 0.125 (≈ 0.289 µM) |  | 1 (≈ 2.32 µM) | 1 (≈ 2.32 µM) | < 0.008 | < 0.008 | < 0.008 |  | 2 (≈ 4.63 µM) |  | Active | Active |
| CC[C@@H]([C@H](C)O)n1ncn(-c2ccc(N3CCN(c4ccc(OC[C@@H]5CO[C@@](Cn6cncn6)(c6ccc(F)cc6F)C5)cc4)CC3)cc2)c1=O [POSACONAZOLE] | 0.063 (≈ 0.0899 µM) |  | 16 (≈ 22.8 µM) | 0.25 (≈ 0.357 µM) | 0.25 (≈ 0.357 µM) | 1 (≈ 1.43 µM) | 0.5 (≈ 0.713 µM) | 0.5 (≈ 0.713 µM) |  | 2 (≈ 2.85 µM) | 8 (≈ 11.4 µM) | 0.5 (≈ 0.713 µM) | < 0.008 | 0.016 (≈ 0.0228 µM) |  | 16 (≈ 22.8 µM) |  |  |  |
| O[C@@](Cn1cnnn1)(c1ccc(F)cc1F)C(F)(F)c1ccc(-c2ccc(OCC(F)(F)F)cc2)cn1 [OTESECONAZOLE] | < 0.008 |  | 4 (≈ 7.58 µM) | < 0.008 | > 64 | 1 (≈ 1.9 µM) | 4 (≈ 7.58 µM) | 0.5 (≈ 0.948 µM) |  | 8 (≈ 15.2 µM) | 8 (≈ 15.2 µM) | < 0.008 | < 0.008 | < 0.008 |  | 8 (≈ 15.2 µM) |  | Active | Active |
| C[C@@H](c1ncncc1F)[C@](O)(Cn1cncn1)c1ccc(F)cc1F [VORICONAZOLE] | 0.063 (≈ 0.18 µM) |  | 2 (≈ 5.73 µM) | 0.016 (≈ 0.0458 µM) | 0.25 (≈ 0.716 µM) | 2 (≈ 5.73 µM) | 2 (≈ 5.73 µM) | 0.063 (≈ 0.18 µM) |  | 4 (≈ 11.5 µM) | 2 (≈ 5.73 µM) | < 0.008 | < 0.008 | < 0.008 |  | 2 (≈ 5.73 µM) |  |  |  |
